From ChEMBL document CHEMBL5380790 (J Med Chem, 2023)
Converted amounts (≈) assume the structure as drawn. The source made the active and inactive calls. The rule behind the calls is not given here.

Columns and labels:
[1] = Metabolic stability in human liver microsomes assessed as intrinsic clearance in presence of NADPH by UPLC analysis; type: ADME, Microsome; settings: read-out: CLH
[2] = target: Mast/stem cell growth factor receptor Kit (Homo sapiens, UniProt P10721, DELTA560/V654A); type: cell-based, GIST-430/654
Mast/stem cell growth factor receptor Kit (Homo sapiens, UniProt P10721, DELTA560/V654A), sequence (P10721 whole entry, looked up, stated change not applied): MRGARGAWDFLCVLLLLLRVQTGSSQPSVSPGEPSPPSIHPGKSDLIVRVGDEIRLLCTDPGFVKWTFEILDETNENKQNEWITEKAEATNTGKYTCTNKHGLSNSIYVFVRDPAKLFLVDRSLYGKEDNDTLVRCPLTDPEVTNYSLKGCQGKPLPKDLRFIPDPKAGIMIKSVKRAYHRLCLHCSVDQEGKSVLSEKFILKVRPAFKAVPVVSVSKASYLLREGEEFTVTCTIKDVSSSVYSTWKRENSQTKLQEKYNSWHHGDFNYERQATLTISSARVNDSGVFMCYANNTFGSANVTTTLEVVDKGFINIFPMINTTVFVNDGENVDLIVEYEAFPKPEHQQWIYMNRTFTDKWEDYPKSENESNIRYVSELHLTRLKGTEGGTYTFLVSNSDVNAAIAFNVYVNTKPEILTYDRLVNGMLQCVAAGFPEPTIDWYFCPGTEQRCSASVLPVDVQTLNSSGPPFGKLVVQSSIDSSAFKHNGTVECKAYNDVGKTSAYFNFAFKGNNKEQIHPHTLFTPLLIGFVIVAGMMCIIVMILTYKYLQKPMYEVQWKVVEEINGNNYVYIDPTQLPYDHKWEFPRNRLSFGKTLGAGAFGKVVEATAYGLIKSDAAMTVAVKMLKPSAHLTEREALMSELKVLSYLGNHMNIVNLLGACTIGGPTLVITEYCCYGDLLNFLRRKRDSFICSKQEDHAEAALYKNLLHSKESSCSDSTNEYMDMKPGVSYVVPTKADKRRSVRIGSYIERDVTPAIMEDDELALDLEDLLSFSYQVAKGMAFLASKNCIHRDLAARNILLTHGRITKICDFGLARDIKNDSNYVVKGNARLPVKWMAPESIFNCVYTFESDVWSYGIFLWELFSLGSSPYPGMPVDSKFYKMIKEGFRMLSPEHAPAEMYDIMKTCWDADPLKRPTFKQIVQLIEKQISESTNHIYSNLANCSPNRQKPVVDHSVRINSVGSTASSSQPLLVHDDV

[3] = Kinetic solubility of compound in PBS buffer at pH 7.4 and measured after 2 hrs by HPLC-UV analysis; type: physicochemical; settings: read-out: Kinetic_solubility
[4] = target: Mast/stem cell growth factor receptor Kit (Homo sapiens, UniProt P10721, V654A); assay: Inhibition of recombinant human KIT V654A mutant using polyGT and ATP as substrate preincubated for 20 mins followed by substrate addition and measured after 240 mins by FRET assay
Mast/stem cell growth factor receptor Kit (Homo sapiens, UniProt P10721, V654A), sequence (P10721 26-976 V654A limits assumed): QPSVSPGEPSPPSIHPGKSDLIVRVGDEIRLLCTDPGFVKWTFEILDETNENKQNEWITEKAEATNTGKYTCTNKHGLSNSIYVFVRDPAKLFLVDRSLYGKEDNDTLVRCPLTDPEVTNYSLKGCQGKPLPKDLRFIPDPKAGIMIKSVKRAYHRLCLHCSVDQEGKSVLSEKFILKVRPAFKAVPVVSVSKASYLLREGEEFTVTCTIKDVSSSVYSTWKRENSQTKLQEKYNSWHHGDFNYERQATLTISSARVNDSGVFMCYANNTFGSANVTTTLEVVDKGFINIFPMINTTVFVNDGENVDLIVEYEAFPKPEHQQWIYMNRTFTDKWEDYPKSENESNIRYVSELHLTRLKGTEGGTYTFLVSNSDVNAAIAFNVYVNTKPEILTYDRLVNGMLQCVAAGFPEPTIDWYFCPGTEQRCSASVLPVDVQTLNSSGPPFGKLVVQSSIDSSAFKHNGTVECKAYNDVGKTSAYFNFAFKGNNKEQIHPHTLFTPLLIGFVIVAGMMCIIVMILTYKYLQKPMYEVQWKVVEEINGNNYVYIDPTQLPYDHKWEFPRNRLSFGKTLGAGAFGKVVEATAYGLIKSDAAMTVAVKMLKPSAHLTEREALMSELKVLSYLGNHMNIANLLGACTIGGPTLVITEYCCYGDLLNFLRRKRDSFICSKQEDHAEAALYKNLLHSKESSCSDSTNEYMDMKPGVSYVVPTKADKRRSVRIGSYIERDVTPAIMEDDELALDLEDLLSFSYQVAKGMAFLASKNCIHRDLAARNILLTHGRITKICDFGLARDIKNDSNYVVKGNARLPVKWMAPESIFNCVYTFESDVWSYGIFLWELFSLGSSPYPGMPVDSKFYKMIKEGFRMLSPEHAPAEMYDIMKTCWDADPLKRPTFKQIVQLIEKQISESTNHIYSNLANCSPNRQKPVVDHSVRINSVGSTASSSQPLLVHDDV

[5] = Metabolic stability in mouse liver microsomes assessed as intrinsic clearance in presence of NADPH by UPLC analysis; type: ADME, Microsome; settings: read-out: CLH
[6] = Octanol-water distribution coefficient, logD of the compound at pH 7.4; type: physicochemical
[7] = Solubility of compound in FaSSIF at pH 6.5; type: physicochemical
[8] = Metabolic stability in human hepatocytes assessed as intrinsic clearance measured per million cells; type: ADME, cell-based, Hepatocyte; settings: read-out: CLH
[9] = Apparent passive permeability of compound in human Caco-2 cells at 1 uM and measured after 2 hrs by LC-MS/MS analysis; type: ADME, cell-based
[10] = Dissociation constant, pKa of the compound; type: physicochemical
[11] = target: hERG (KCNH2) potassium channel (Homo sapiens, UniProt Q12809); assay: Inhibition of human ERG potassium channel transfected in HEK293 cells at holding potential -80 mV at 10 uM and measured for 5 mins by whole cell patch clamp assay; type: toxicity, cell-based; settings: HEK293 cells transfected with hERG
hERG (KCNH2) potassium channel, sequence (Q12809 whole entry): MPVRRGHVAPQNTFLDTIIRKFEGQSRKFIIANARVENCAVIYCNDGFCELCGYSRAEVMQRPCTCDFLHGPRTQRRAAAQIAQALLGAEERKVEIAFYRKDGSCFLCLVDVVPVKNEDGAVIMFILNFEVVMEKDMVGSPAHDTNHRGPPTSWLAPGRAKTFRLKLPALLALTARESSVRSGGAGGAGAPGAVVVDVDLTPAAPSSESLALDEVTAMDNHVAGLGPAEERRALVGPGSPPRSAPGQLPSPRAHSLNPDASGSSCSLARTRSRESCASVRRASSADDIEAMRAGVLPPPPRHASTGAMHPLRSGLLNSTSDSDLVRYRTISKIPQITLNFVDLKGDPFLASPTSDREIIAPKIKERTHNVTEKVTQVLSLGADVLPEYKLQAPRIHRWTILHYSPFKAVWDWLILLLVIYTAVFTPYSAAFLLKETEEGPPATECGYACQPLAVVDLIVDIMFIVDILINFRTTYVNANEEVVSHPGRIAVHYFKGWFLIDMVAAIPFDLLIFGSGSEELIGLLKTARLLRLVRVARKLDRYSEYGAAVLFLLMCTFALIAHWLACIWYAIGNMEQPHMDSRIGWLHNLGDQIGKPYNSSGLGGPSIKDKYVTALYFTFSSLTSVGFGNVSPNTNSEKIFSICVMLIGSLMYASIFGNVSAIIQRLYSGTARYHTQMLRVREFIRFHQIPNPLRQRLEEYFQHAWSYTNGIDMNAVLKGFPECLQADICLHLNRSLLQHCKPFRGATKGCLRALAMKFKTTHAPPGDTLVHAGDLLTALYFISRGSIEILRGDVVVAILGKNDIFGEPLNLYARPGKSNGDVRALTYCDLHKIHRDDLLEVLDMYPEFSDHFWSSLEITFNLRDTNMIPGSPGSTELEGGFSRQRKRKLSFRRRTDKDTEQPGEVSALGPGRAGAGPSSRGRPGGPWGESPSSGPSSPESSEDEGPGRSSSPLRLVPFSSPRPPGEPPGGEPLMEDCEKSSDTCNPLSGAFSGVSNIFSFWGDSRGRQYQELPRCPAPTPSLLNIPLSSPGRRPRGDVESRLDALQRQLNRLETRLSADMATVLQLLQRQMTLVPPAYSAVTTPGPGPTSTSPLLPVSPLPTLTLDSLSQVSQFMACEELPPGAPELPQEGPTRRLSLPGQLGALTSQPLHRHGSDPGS

[12] = Efflux ratio of apparent permeability from basolateral to apical side over apical to basolateral side in human Caco-2 cells at 1 uM and measured after 2 hrs by LC-MS/MS analysis; type: ADME, cell-based
[13] = Solubility of compound in FeSSIF at pH 5.5; type: physicochemical
[14] = Solubility of compound in simulated gastric fluid at pH 1.2; type: physicochemical
[15] = target: Receptor-type tyrosine-protein kinase FLT3 (Homo sapiens) (UniProt P36888); assay: Inhibition of FLT3 (unknown origin) at 1 uM using 33P-ATP as substrate incubated for 120 mins by radiometric kinase assay
Receptor-type tyrosine-protein kinase FLT3 (Homo sapiens), sequence (P36888 whole entry): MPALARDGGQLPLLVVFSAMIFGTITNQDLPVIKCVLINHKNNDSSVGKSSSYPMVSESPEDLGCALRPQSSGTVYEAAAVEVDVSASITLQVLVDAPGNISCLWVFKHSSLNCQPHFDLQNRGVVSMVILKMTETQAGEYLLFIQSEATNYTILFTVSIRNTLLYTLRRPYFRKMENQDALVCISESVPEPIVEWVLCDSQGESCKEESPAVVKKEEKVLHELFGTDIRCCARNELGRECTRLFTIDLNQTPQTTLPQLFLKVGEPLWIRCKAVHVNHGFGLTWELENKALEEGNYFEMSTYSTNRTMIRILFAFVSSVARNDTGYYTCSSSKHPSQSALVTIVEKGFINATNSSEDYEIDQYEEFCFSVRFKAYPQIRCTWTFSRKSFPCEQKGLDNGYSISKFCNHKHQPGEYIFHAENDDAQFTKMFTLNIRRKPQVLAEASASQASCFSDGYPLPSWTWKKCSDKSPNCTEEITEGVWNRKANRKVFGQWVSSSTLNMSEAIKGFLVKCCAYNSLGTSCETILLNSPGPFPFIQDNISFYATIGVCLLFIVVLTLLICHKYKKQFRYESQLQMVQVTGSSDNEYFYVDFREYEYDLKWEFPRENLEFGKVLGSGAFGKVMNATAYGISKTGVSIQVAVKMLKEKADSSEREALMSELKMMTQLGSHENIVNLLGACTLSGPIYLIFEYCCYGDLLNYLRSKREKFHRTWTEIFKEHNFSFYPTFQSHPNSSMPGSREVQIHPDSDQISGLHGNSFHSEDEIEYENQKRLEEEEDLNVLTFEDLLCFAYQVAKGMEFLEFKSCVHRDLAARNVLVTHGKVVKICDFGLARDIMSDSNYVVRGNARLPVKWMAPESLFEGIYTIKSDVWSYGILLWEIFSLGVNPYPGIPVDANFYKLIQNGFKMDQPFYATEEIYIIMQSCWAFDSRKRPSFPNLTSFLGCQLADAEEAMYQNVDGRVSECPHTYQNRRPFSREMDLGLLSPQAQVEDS

SMILES	microsomal CLint [1] [µL/min/mg]	IC50 [2] [nM]	solubility kinetic at 2 h [3] [µM]	IC50 [4] [nM]	microsomal CLint [5] [µL/min/mg]	logD [6]	solubility [7] [µg/mL]	hepatocyte CLint [8] [µL/min/1e6 cells]	Papp at 2 h, 1 µM [9] [×10⁻⁶ cm/s]	pKa [10]	efflux ratio at 2 h, 1 µM [12]	solubility [13] [µg/mL]	solubility [14] [µg/mL]	inhibition [15]	inhibition at 5 min, 10 µM [11] [%]
COCCOc1ccn2c(-c3cncc(NCc4ccc(N5CCCC5)nc4)c3)cnc2c1	> 75	110	9 (≈ 4 µg/mL)	12	> 75										
Cn1cc(-c2ccc(CNc3cc(-c4cnc5cc(OCCN6CCn7nncc7C6)ccn45)ncn3)cc2)cn1		76				2.8	10 (≈ 18.3 µM)	< 4	7.6	5.8	18				-8
CN(Cc1ccc(N2CCCC2)nc1)c1cncc(-c2cnc3ccccn23)c1			8 (≈ 3.08 µg/mL)	240											
COc1ccn2c(-c3cc(NCc4ccc(-c5cnn(C)n5)cc4)ncn3)cnc2c1		78				4	4 (≈ 9.7 µM)	8	9.5		0.7				
CN1CCN(CCOc2ccn3c(-c4cncc(NCc5ccc(N6CCCC6)nc5)c4)cnc3c2)CC1	10	290	100 (≈ 51.3 µg/mL)	11	> 75										
CC(Nc1cncc(-c2cnc3ccccn23)c1)c1ccc(N2CCCC2)nc1 (centres undefined)	> 75	2600	124 (≈ 47.7 µg/mL)	83	> 75										
c1ccn2c(-c3cc(NCc4ccc(N5CCCC5)nc4)ncn3)cnc2c1	10	429	< 3		> 75										
Cn1cc(-c2ccc(CNc3cc(-c4cnc5cc(OCCO)ccn45)ncn3)cc2)cn1		75				3	13 (≈ 29.4 µM)	9	21		5				-23
Cn1cc(-c2ccc(CNc3cc(-c4cnc5cc(OCCN6CCC(C)(C#N)CC6)ccn45)ncn3)cc2)cn1		93				4.4	16 (≈ 29.2 µM)	16	3.1	6.9	4.7				-15
c1ccn2c(-c3cncc(NCc4ccc(N5CCCC5)nc4)c3)cnc2c1	> 75	720	101 (≈ 37.4 µg/mL)	12	> 75										90
c1ccn2c(-c3nccc(NCC4CCN(C5CCCC5)CC4)n3)cnc2c1	10			> 10000	> 75										
c1ccc2ncc(CNc3cncc(-c4cnc5ccccn45)c3)cc2c1	10			> 10000	10										
c1ccn2c(-c3nccc(NCc4ccc(N5CCCC5)cc4)n3)cnc2c1		680	7 (≈ 2.59 µg/mL)	5.6											
c1ccc(-c2ccc(CNc3ccnc(-c4cnc5ccccn45)n3)cc2)cc1	10	340	< 3	15	10										
COc1ccn2c(-c3cc(NCc4ccc(-c5ccccc5)cc4)ncn3)cnc2c1	10	160	< 2	4.6	< 10										
COc1ccn2c(-c3cncc(NCc4ccc(N5CCCC5)nc4)c3)cnc2c1	> 75	300	81 (≈ 32.4 µg/mL)	13	> 75										

The next lines start with results.

microsomal CLint [1] [µL/min/mg]	IC50 [2] [nM]	solubility kinetic at 2 h [3] [µM]	IC50 [4] [nM]	microsomal CLint [5] [µL/min/mg]	logD [6]	solubility [7] [µg/mL]	hepatocyte CLint [8] [µL/min/1e6 cells]	Papp at 2 h, 1 µM [9] [×10⁻⁶ cm/s]	pKa [10]	efflux ratio at 2 h, 1 µM [12]	solubility [13] [µg/mL]	solubility [14] [µg/mL]	inhibition [15]	SMILES	inhibition at 5 min, 10 µM [11] [%]
	70				2.9		18	12	9.1	5.4				Cn1cc(-c2ccc(CNc3cc(-c4cnc5cc(OCCN6CCCC6)ccn45)ncn3)cc2)cn1	-78
10	48	< 2		> 75	3.8	2 (≈ 4.39 µM)	18	12		0.9	13 (≈ 28.5 µM)	890 (≈ 1950 µM)	Active	COCCOc1ccn2c(-c3cc(NCc4ccc(-c5cnn(C)c5)cc4)ncn3)cnc2c1	1
	61				1.9	97 (≈ 202 µM)	4	5.7	9.5	57				CN1CC(COc2ccn3c(-c4cc(NCc5ccc(-c6cnn(C)c6)cc5)ncn4)cnc3c2)C1	-59
	56				1.5	16 (≈ 31.3 µM)	10	9.5	7.3	15				Cn1cc(-c2ccc(CNc3cc(-c4cnc5cc(OCCCNC6COC6)ccn45)ncn3)cc2)cn1	-19
	46				3		4	6.4		0.8				COCCOc1ccn2c(-c3cc(NCc4ccc(-c5cnn(C)n5)cc4)ncn3)cnc2c1	
	43				2.5									CN(C)CCCOc1ccn2c(-c3cc(NCc4ccc(-c5cnn(C)c5)cc4)ncn3)cnc2c1	-86
	54				3.2	10 (≈ 18.1 µM)	6	7.6	6.3	7.5				Cc1nc(-c2ccc(CNc3cc(-c4cnc5cc(OCCN6CCC(=O)N(C)CC6)ccn45)ncn3)cc2)co1	-7
< 10	55	< 2		< 10										COc1ccn2c(-c3cc(NCc4ccc(-c5cnn(C)c5)cc4)ncn3)cnc2c1	
	73				4.3	2 (≈ 3.61 µM)	10	1.8	8.3	1.3				Cn1cc(-c2ccc(CNc3cc(-c4cnc5cc(OCCCN6CCC(C)(F)CC6)ccn45)ncn3)cc2)cn1	-4
